One assay concerns the target TYK2 (Homo sapiens (Human), UniProt P29597). Briefly: Tyk2 radioactive kinase assay. The note with it: ATP 10 μM. The assay is classed as biochemical. An outline of the steps: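 Recombinant human TYK2 (Invitrogen) was mixed with 20 μM peptide substrate in a buffer of 20 mM Hepes pH 7.5, 10 mM MgCl2, 1 mM EGTA, 0.02% Brij35, 0.02 mg/mL BSA, 0.1 mM […], 2 mM DTT and 1% DMSO, and compounds in DMSO were added. Adding ^33P-ATP (10 μM ATP) started the reaction, which ran 120 min at room temperature. Mixtures were then spotted onto P81 ion-exchange paper, washed thoroughly in 0.75% phosphoric acid, and counted for radioactivity.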

The target of the next assay is JAK2 (Homo sapiens (Human), UniProt O60674). Briefly: JAK2 radioactive kinase assay. The format is biochemical. As to conditions: ATP 10 μM. An outline of the steps: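 Radiometric assay in Hepes pH 7.5, MgCl2, EGTA, Brij35, BSA, DTT, 1% DMSO, with 10 μM [33P]ATP, 120 min at room temp; P81 paper capture and counting. […]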
The test system of assay [1] is Tyk2-pSTAT4 (IL-12 induced pSTAT4). Briefly: IL-12 induced pSTAT4 in human PBMC. The format is cell-based. As to conditions: 1.7 ng/mL IL-12, 30 minutes. In short, it runs like this: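 pSTAT4 and total STAT4 quantified by MSD in cell lysates after 30 minutes of 1.7 ng/mL IL-12 stimulation. Beforehand, compound (0.1% DMSO final) sat 1 hr at 37 C on 200,000 thawed buffy-coat PBMC per well in serum-containing medium.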

Assay [2] deals with JAK2-pSTAT5 (GM-CSF induced pSTAT5). Briefly: GM-CSF induced pSTAT5 in human PBMC. The format is cell-based. The note with it: 5 ng/mL GM-CSF. An outline of the steps:
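Thawed human PBMC, 200,000 per well in serum-containing medium, were preincubated 1 hr at 37 C with compound in 0.1% DMSO. GM-CSF at 5 ng/mL final was added for 20 minutes, then pSTAT5 and total STAT5 in lysates were measured by MSD immunoassay.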

Each structure is given as a SMILES string.

JAK2, sequence (O60674 whole entry): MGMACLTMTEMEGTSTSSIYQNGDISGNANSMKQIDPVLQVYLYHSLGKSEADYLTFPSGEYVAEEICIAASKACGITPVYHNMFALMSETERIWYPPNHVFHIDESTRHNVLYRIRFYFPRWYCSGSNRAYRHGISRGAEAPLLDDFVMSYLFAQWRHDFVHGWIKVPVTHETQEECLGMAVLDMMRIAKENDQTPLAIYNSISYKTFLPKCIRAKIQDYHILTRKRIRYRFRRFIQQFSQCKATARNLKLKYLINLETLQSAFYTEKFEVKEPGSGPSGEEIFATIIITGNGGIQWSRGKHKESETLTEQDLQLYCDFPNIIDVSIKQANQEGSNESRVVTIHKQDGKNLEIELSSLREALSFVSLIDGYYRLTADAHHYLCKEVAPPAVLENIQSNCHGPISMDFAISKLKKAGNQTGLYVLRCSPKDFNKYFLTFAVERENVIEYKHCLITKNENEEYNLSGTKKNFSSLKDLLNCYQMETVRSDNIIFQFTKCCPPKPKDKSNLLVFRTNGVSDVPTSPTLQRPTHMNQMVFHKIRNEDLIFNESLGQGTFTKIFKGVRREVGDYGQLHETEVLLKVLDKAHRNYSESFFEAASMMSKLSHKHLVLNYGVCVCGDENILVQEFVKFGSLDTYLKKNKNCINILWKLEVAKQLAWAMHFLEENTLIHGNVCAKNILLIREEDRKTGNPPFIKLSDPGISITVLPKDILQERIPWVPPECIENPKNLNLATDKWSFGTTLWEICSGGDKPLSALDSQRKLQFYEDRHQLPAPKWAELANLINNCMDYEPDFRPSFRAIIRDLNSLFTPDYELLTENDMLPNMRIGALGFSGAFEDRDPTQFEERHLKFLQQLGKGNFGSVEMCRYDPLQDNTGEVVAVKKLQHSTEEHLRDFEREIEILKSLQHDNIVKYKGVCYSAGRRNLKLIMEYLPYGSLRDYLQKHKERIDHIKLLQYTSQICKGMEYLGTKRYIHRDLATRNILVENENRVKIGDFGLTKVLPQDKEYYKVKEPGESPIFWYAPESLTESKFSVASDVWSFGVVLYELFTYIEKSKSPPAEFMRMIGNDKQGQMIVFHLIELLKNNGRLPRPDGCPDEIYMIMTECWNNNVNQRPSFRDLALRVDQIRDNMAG
TYK2, sequence (P29597 whole entry): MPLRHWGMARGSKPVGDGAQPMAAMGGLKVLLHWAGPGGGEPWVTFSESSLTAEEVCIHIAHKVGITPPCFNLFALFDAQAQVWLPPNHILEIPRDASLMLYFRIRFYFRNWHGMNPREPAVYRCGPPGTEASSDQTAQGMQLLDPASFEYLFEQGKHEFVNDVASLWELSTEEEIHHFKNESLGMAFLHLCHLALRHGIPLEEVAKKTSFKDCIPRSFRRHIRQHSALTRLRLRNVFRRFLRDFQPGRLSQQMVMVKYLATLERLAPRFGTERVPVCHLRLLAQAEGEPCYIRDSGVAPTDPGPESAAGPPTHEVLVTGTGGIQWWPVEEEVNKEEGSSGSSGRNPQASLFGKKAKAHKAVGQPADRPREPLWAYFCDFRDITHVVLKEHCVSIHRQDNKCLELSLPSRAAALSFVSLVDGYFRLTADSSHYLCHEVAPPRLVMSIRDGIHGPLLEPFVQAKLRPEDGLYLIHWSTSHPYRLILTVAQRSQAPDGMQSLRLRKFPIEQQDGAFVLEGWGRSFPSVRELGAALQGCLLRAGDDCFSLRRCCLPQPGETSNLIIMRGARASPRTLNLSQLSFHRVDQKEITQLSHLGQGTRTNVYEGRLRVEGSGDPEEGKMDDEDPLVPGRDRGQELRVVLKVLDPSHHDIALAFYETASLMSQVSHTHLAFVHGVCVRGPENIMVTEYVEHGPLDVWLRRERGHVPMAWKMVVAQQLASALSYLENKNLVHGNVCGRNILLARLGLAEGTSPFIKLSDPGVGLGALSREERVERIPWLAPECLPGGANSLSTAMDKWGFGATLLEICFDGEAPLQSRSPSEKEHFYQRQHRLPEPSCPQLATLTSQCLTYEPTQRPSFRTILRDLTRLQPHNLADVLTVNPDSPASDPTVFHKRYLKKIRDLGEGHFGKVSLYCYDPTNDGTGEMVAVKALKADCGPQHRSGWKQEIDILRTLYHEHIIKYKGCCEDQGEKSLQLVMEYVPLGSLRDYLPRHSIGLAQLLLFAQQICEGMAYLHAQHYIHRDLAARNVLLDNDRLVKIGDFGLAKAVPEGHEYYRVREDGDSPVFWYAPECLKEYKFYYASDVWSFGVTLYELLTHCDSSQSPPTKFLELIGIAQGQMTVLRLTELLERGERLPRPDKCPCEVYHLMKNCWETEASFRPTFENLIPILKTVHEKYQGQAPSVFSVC

A word on the Ki: it is the dissociation constant of the complex between target and ligand, obtained from inhibition or displacement. A word on the EC50: it is the concentration needed to bring the measured effect to its halfway point. Low values mean a more potent agent, high ones a less potent agent. On to `CO[C@@H]1CCN(c2ccn(-c3cc(-c4c(F)cccc4C#N)nc4c3C(=O)NC4)n2)C[C@H]1O` [I-193, 3-fluoro-2-(4-(3-((3R,4R)-3-hydroxy-4-methoxypiperidin-1-yl)-1H-pyrazol-1-yl)-5-oxo-6,7-dihydro-5H-pyrrolo[3,4-b]pyridin-2-yl)benzonitrile], for which the Ki at TYK2 and at JAK2 was 0.1 to 10 nM each time. Also, the EC50 in assay [1] (Homo sapiens, PBMC, 0.5 h) is 100 to 2000 nM; in assay [2] (Homo sapiens, PBMC, 20 min), > 2000 nM.

As to `C[C@@]1(O)CCCN(c2ccn(-c3cc(-c4c(F)cccc4C#N)nc4c3C(=O)NC4)n2)C1` [I-71, (R)-3-fluoro-2-(4-(3-(3-hydroxy-3-methylpiperidin-1-yl)-1H-pyrazol-1-yl)-5-oxo-6,7-dihydro-5H-pyrrolo[3,4-b]pyridin-2-yl)benzonitrile], the Ki is 0.009 to 0.1 nM on TYK2 and 10 to 100 nM at JAK2. For the same molecule, the EC50 was in the range of 30 to 100 nM in assay [1] (Homo sapiens, PBMC, 0.5 h) and 100 to 2000 nM in assay [2] (Homo sapiens, PBMC, 20 min).

For `[2H]C1([2H])CC(O)(C([2H])([2H])[2H])C([2H])([2H])N1c1ccn(-c2cc(-c3c(F)cccc3C#N)nc3c2C(=O)NC3)n1` (stereo not drawn) [I-170, 3-fluoro-2-(4-(3-(3-hydroxy-3-(methyl-d3)pyrrolidin-1-yl-2,2,5,5-d4)-1H-pyrazol-1-yl)-5-oxo-6,7-dihydro-5H-pyrrolo[3,4-b]pyridin-2-yl)benzonitrile], the Ki on TYK2 and at JAK2 was 0.1 to 10 nM throughout. Besides, the EC50 in assay [1] (Homo sapiens, PBMC, 0.5 h) is 30 to 100 nM; in assay [2] (Homo sapiens, PBMC, 20 min), > 2000 nM.

As to `N#Cc1cccc(F)c1-c1cc(-n2ccc(N3C[C@H](O)C[C@H]3CO)n2)c2c(n1)CNC2=O` [I-214, 3-fluoro-2-(4-(3-((2S,4R)-4-hydroxy-2-(hydroxymethyl)pyro-lidin-1-yl)-1H-pyrazol-1-yl)-5-oxo-6,7-dihydro-5H-pyrrolo[3,4-b]pyridin-2-yl)benzonitrile], the values for the Ki at TYK2 and on JAK2 were 0.1 to 10 nM and 10 to 100 nM, respectively. The EC50 was 100 to 2000 nM in assay [1] (Homo sapiens, PBMC, 0.5 h) and > 2000 nM in assay [2] (Homo sapiens, PBMC, 20 min).

Turning to `N#Cc1cccc(F)c1-c1cc(-n2ccc(N3CC[C@@H](O)[C@@H](N4CCOCC4)C3)n2)c2c(n1)CNC2=O` [I-218, 3-fluoro-2-(4-(3-((3S,4R)-4-hydroxy-3-morpholinopiperidin-1-yl)-1H-pyrazol-1-yl)-5-oxo-6,7-dihydro-5H-pyrrolo[3,4-b]pyridin-2-yl)benzonitrile], the Ki on TYK2 was in the range of 0.1 to 10 nM; on JAK2 it was 10 to 100 nM. The EC50 in assay [1] (Homo sapiens, PBMC, 0.5 h) lay in the range of 100 to 2000 nM; in assay [2] (Homo sapiens, PBMC, 20 min), 100 to 2000 nM.

On to `CC1(O)CN(c2ccn(-c3cc(-c4c(F)cccc4C#N)nc4c3C(=O)NC4)n2)CCC1F` (stereo not drawn) [I-219, 3-fluoro-2-(4-(3-(4-fluoro-3-hydroxy-3-methylpiperidin-1-yl)-1H-pyrazol-1-yl)-5-oxo-6,7-dihydro-5H-pyrrolo[3,4-b]pyridin-2-yl)benzonitrile], for which the Ki was in the range of 0.1 to 10 nM at TYK2 and 10 to 100 nM on JAK2. In addition, the EC50 in assay [1] (Homo sapiens, PBMC, 0.5 h) is 100 to 2000 nM; in assay [2] (Homo sapiens, PBMC, 20 min), 100 to 2000 nM.

Turning to `N#Cc1cccc(F)c1-c1cc(-n2ccc(N3CC[C@H](C#N)[C@@H](O)C3)n2)c2c(n1)CNC2=O` [I-215, (3R,4R)-1-(1-(2-(2-cyano-6-fluorophenyl)-5-oxo-6,7-dihydro-5H-pyrrolo[3,4-b]pyridin-4-yl)-1H-pyrazol-3-yl)-3-hydroxypiperidine-4-carbonitrile], the results for the Ki on TYK2 and on JAK2 were 0.1 to 10 nM and 10 to 100 nM, respectively. Moreover, the 50% effective concentration (EC50) fell in the range of 100 to 2000 nM in assay [1] and 100 to 2000 nM in assay [2] (Homo sapiens, PBMC, 20 min).

Turning to `N#Cc1cccc(F)c1-c1cc(-n2ccc(N3CCC[C@](O)(C(F)(F)F)C3)n2)c2c(n1)CNC2=O` [I-88, (R)-3-fluoro-2-(4-(3-(3-hydroxy-3-(trifluoromethyl)piperidin-1-yl)-1H-pyrazol-1-yl)-5-oxo-6,7-dihydro-5H-pyrrolo[3,4-b]pyridin-2-yl)benzonitrile], the Ki lay in the range of 0.009 to 0.1 nM at TYK2 and 10 to 100 nM on JAK2. Further, the EC50 in assay [1] (Homo sapiens, PBMC, 0.5 h) was 100 to 2000 nM; in assay [2] (Homo sapiens, PBMC, 20 min), > 2000 nM.

With `CO[C@@H]1CCN(c2ccn(-c3cc(-c4c(F)cccc4C#N)nc4c3C(=O)NC4)n2)C[C@]1(C)O` [I-213, 3-fluoro-2-(4-(3-((3S,4R)-3-hydroxy-4-methoxy-3-methylpiperidin-1-yl)-1H-pyrazol-1-yl)-5-oxo-6,7-dihydro-5H-pyrrolo[3,4-b]pyridin-2-yl)benzonitrile], the Ki on TYK2 was 0.009 to 0.1 nM; on JAK2, 10 to 100 nM. Besides, the EC50 in assay [1] (Homo sapiens, PBMC, 0.5 h) was 100 to 2000 nM; in assay [2] (20 minutes) it was > 2000 nM.

With `C[C@H]1CC[C@H](O)CN1c1ccn(-c2cc(-c3c(F)cccc3C#N)nc3c2C(=O)NC3)n1` [I-112, 3-fluoro-2-(4-(3-((2S,5S)-5-hydroxy-2-methylpiperidin-1-yl)-1H-pyrazol-1-yl)-5-oxo-6,7-dihydro-5H-pyrrolo[3,4-b]pyridin-2-yl)benzonitrile], the Ki was in the range of 0.1 to 10 nM on TYK2 and 10 to 100 nM on JAK2. Further, the EC50 in assay [1] (Homo sapiens, PBMC, 0.5 h) lay in the range of 100 to 2000 nM; in assay [2] (Homo sapiens, PBMC, 20 min) it was 100 to 2000 nM.

Turning to `CO[C@H]1CN(c2ccn(-c3cc(-c4c(F)cccc4C#N)nc4c3C(=O)NC4)n2)C[C@@]1(C)O` [I-226, 3-fluoro-2-(4-(3-((3R,4S)-3-hydroxy-4-methoxy-3-methyl-pyrrolidin-1-yl)-1H-pyrazol-1-yl)-5-oxo-6,7-dihydro-5H-pyrrolo[3,4-b]pyridin-2-yl)benzonitrile], the Ki on TYK2 and at JAK2 was 0.1 to 10 nM throughout. Besides, the EC50 is 30 to 100 nM in assay [1] (Homo sapiens, PBMC, 0.5 h) and 100 to 2000 nM in assay [2] (Homo sapiens, PBMC, 20 min).

As for `N#Cc1cccc(F)c1-c1cc(-n2ccc(N3CCNC(=O)CC3)n2)c2c(n1)CNC2=O` [I-141, 3-fluoro-2-(5-oxo-4-(3-(5-oxo-1,4-diazepan-1-yl)-1H-pyrazol-1-yl)-6,7-dihydro-5H-pyrrolo[3,4-b]pyridin-2-yl)benzonitrile], the results for the Ki at TYK2 and at JAK2 were 0.009 to 0.1 nM and 0.1 to 10 nM, respectively. In addition, the EC50 in assay [1] (Homo sapiens, PBMC, 0.5 h) fell in the range of 100 to 2000 nM; in assay [2] (Homo sapiens, PBMC, 20 min), 100 to 2000 nM.

Regarding `N#Cc1cccc(F)c1-c1cc(-n2ccc(N3CCC[C@@](N)(C(F)(F)F)C3)n2)c2c(n1)CNC2=O` [I-118, (S)-2-(4-(3-(3-amino-3-(trifluoromethyl)piperidin-1-yl)-1H-pyrazol-1-yl)-5-oxo-6,7-dihydro-5H-pyrrolo[3,4-b]pyridin-2-yl)-3-fluorobenzonitrile], the Ki was in the range of 0.009 to 0.1 nM at TYK2 and 0.1 to 10 nM at JAK2. The EC50 in assay [1] (Homo sapiens, PBMC, 0.5 h) was 30 to 100 nM; in assay [2] (Homo sapiens, PBMC, 20 min), 100 to 2000 nM.

As for `C[C@H]1CC[C@@H](O)CN1c1ccn(-c2cc(-c3c(F)cccc3C#N)nc3c2C(=O)NC3)n1` [I-113, 3-fluoro-2-(4-(3-((2S,5R)-5-hydroxy-2-methylpiperidin-1-yl)-1H-pyrazol-1-yl)-5-oxo-6,7-dihydro-5H-pyrrolo[3,4-b]pyridin-2-yl)benzonitrile], the figures for the Ki on TYK2 and at JAK2 were 0.1 to 10 nM and 10 to 100 nM, respectively. Besides, the half-maximal effective concentration (EC50) in assay [1] (Homo sapiens, PBMC, 0.5 h) was in the range of 100 to 2000 nM; in assay [2] (Homo sapiens, PBMC, 20 min), 100 to 2000 nM.

With `N#Cc1cccc(F)c1-c1cc(-n2ccc([C@H]3CCCO3)n2)c2c(n1)CNC2=O` [I-103, (R)-3-fluoro-2-(5-oxo-4-(3-(tetrahydrofuran-2-yl)-1H-pyrazol-1-yl)-6,7-dihydro-5H-pyrrolo[3,4-b]pyridin-2-yl)benzonitrile], the values for the inhibitory constant (Ki) at TYK2 and on JAK2 were 0.1 to 10 nM and 10 to 100 nM, respectively. For the same molecule, the EC50 in assay [1] (Homo sapiens, PBMC, 0.5 h) fell in the range of 100 to 2000 nM; in assay [2] (Homo sapiens, PBMC, 20 min), 100 to 2000 nM.

For `N#Cc1cccc(F)c1-c1cc(-n2ccc(N3CCC(N4CCOCC4)CC3)n2)c2c(n1)CNC2=O` [I-59, 3-fluoro-2-(4-(3-(4-morpholinopiperidin-1-yl)-1H-pyrazol-1-yl)-5-oxo-6,7-dihydro-5H-pyrrolo[3,4-b]pyridin-2-yl)benzonitrile], the Ki on TYK2 and at JAK2 was 0.1 to 10 nM in each case. In addition, the EC50 in assay [1] and in assay [2] (20 minutes) was 100 to 2000 nM in each case.

Take `CO[C@H]1CN(c2ccn(-c3cc(-c4c(F)cccc4C#N)nc4c3C(=O)NC4)n2)CC[C@@H]1O` [I-202, 3-fluoro-2-(4-(3-((3S,4S)-4-hydroxy-3-methoxypiperidin-1-yl)-1H-pyrazol-1-yl)-5-oxo-6,7-dihydro-5H-pyrrolo[3,4-b]pyridin-2-yl)benzonitrile]: the Ki on TYK2 lay within 0.1 to 10 nM; at JAK2 it was 10 to 100 nM. Moreover, the EC50 in assay [1] (Homo sapiens, PBMC, 0.5 h) is 30 to 100 nM; in assay [2] (Homo sapiens, PBMC, 20 min) it was 100 to 2000 nM.

On to `CC(=O)Nc1ccn(-c2cc(-c3c(F)cccc3C#N)nc3c2C(=O)NC3)n1` [I-212, N-(1-(2-(2-cyano-6-fluorophenyl)-5-oxo-6,7-dihydro-5H-pyrrolo[3,4-b]pyridin-4-yl)-1H-pyrazol-3-yl)acetamide], for which the Ki at TYK2 is 0.1 to 10 nM; on JAK2, 100 to 1000 nM. Further, the EC50 in assay [1] (Homo sapiens, PBMC, 0.5 h) is 100 to 2000 nM; in assay [2] (Homo sapiens, PBMC, 20 min) it was > 2000 nM.

The record behind these values is US10781204B2, “TYK2 inhibitors and uses thereof” (Nimbus Lakshmi, Inc., priority 2015, dated 2020).
